Earlier results on one compound are cited in patent US20190365664A1, “CARYOPHYLLENE FORMULATIONS, APPARATUSES, AND METHODS” (Biotech Institute, LLC, priority 2016, published 2019).

The conditions of the data set: other studies (National Geographic News, Jun. 24, 2008).

As for `C=C1CC/C=C(\C)CC[C@@H]2[C@@H]1CC2(C)C` [BCP, 4,11,11-Trimethyl-8-methylenebicyclo[7.2.0]undec-4-ene], the psychoactive effects result is “does not have psychoactive effects”.
